# Experimental data as given in patent US6492167B2, “Ubiquitous potassium-channel proteins and their genes” (JCR Pharmaceuticals Co., Ltd., priority 1995, dated 2002).
# Key:
# ruKATP-1 [1] = biological target: T1, ruKATP-1 (Rattus norvegicus, UniProt Q63664); assay: Single-channel analysis of HEK 239 cells having ruKATP-1 expressed (inside-out mode); assay type: cell-based; conditions: for uKATP-1 channel activity (state of channel): inside-out mode
# T1 construct: The expression plasmid (pCMV6b) carrying a full-length ruKATP-1 coding cDNA was transfected into HEK 239 cells; expressed in transfected cells; host or cells: HEK 239 (sic) cells, plasmid pCMV6b, Lipofectamine
# T1 sequence (Q63664 1-424): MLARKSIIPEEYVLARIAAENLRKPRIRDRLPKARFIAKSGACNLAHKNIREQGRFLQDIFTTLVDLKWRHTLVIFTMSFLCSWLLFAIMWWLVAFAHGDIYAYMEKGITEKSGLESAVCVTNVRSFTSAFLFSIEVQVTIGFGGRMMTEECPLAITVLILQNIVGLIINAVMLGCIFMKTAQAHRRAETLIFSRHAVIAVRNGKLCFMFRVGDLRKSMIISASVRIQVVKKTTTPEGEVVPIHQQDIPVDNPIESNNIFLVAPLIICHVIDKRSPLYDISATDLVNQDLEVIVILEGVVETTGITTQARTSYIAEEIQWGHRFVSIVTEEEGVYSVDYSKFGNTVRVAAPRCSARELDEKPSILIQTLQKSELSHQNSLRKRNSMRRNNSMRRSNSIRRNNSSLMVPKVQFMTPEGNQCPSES
# Experimental: […] cells were cultured in minimum essential Eagle's medium supplemented with 10% of horse serum. The expression plasmid (pCMV6b) carrying a full-length ruKATP-1 coding cDNA was transfected into […] cells with use of Lipofectamine to prepare transformed HEK 293 cells. The transformed cells produced in this. manner were subjected to single channel analysis, with the results being shown in FIGS. 8A and 8B.
# FIG. 7 illustrates effects of ATP on the uKATP-1 channel activity as observed in the inside-out mode.
# ruKATP-1 [2] = biological target: T1, ruKATP-1; assay: Electrophysiological analysis of Xenopus oocytes injected with ruKATP-1 cRNA; assay type: cell-based
# Experimental: A 20 ng quantity of cRNA synthesized in vitro from plasmid pGEM11Z containing a full-length ruKATP-1 cDNA with the RNA polymerase after being linearized through treatment with a restriction enzyme Not1 was injected into Xenopus oocytes, followed by electrophysiological analysis 2 or 3 days later. (see FIG. 7). As is illustrated in FIGS. 7A and 7B, there was observed a K^+ electric current showing weak inward rectification. The K^+ electric current was suppressed by adding Ba^2+ in the exracellular fluid.
smiles,measurement,setting,value
Nc1ncnc2c1ncn2[C@@H]1O[C@H](COP(=O)(O)OP(=O)(O)OP(=O)(O)O)[C@@H](O)[C@H]1O [ATP],uKATP-1 channel activity (state of channel),ruKATP-1 [1]; 1 μM of ATP added inside the cellular membrane,open
same,uKATP-1 channel activity (state of channel),ruKATP-1 [1]; addition of ATP,closed completely
[Ba+2] [Ba^2+],inward rectification (inward current) of oocytes injected with ruKATP-1 cRNA,"ruKATP-1 [2]; 300 μM Ba2+ added to the extracellular fluid, 45 mM [K+] extracellular fluid",blocked
same,K+ electric current showing weak inward rectification,"ruKATP-1 [2]; Ba2+ added in the extracellular fluid, concentration not given",suppressed
[Mg+2] [Mg^2+],outward electric current flowing through the channel,"ruKATP-1 [1]; intracellular Mg2+, transformed HEK cells",suppressed
